Data published in patent US20230119479A1, “A HISTONE DEACETYLASE INHIBITOR HAVING A NITROGEN-CONTAINING AROMATIC HETEROCYCLYL GROUP” (SHIONOGI & CO., LTD., priority 2019, published 2023).

Assays:
[1] = molecular target: T1, HDAC2 Human recombinant C-terminal FLAG-tag (Homo sapiens, UniProt Q92769); assay: Measurement of HDAC2 enzyme inhibitory activity (HTRF); format: biochemical; conditions: recombinant HDAC2, H3K9ac peptide, 3 hours room temperature; read-out: HDAC2 IC50
T1 construct: FLAG (C); purchased BPS Bioscience 50052
T1 sequence (Q92769 whole entry): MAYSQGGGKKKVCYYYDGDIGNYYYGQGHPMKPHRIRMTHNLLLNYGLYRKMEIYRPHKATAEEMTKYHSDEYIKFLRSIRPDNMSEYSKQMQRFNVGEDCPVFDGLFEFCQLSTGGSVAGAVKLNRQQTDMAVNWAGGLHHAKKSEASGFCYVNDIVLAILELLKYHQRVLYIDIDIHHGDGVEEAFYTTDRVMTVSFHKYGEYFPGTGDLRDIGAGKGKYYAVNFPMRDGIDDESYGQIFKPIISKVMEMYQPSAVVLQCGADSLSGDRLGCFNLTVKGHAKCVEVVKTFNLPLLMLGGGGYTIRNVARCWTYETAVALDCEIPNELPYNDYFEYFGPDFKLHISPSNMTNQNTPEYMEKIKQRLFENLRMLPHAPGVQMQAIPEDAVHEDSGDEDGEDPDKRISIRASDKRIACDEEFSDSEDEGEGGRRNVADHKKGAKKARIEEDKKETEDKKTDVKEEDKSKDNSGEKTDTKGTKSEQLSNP
Summary of the method: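 Compounds were tested at 8 points in 3-fold dilutions from 99 μM final (n=2) against FLAG-tagged HDAC2 with biotinylated H3K9ac (1-21) peptide (0.6 μM as added). The reaction ran 3 h at room temperature in Tris pH 8.0 buffer, then was stopped with SAHA. Deacetylated product was detected by HTRF (Eu-anti-H3K9me0 antibody, streptavidin-XL665) as the 665/615-620 nm ratio.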

[2] = Platelet toxicity test using human blood progenitor cells (WST); format: cell-based; conditions: human bone marrow CD34+ progenitor cells, maximum concentration 25 μM
Protocol: Test Example 2: Platelet Toxicity Test Using Human Blood Progenitor Cells
Human bone marrow CD34+ progenitor cells (Lonza, 2M-101B) stored at −80° C. were thawed, spun down at 150 g for 10 minutes at 20° C., and a medium (StemSpan Expansion Supplement, STEM CELL TECHNOLOGIES, ST-02696) to which cytokines (StemSpan SFEM II, STEM CELL TECHNOLOGIES, ST-09655) was added was added to adjust to 2×10^4/well, the mixture was seeded in 12well non-coat dish (Corning, 3513), was incubated for 10 days at 37° C., 5% CO2. After 10 days, the cells were collected and spun down at 150 g for 10 minutes at 20° C., and a medium (StemSpan Expansion Supplement) containing cytokines (StemSpan SFEM II) was added so that the number of cells became 2×10^5 cells/ml. 50 μl of the cell suspension was seeded to each well of a 96-well plate (Corning, 3596) and allowed to stand overnight in an incubator at 37° C., 5% CO2. The next day, 50 μl of the test compound was treated to each well and allowed to stand for 48 hours in the incubator at 37° C., 5% CO2 (n=2). At this time, the test compound dissolved in 100% DMSO was serially diluted with DMSO at a 3-fold ratio, and then a medium containing cytokine was added to adjust the final concentration to 25, 8.33, 2.78, 0.93, 0.31, 0.1 μM. After that, 10 μl of WST (Cell count reagent SF, Nacalai Tesque Inc., 07553-44) was added to each well, and the mixture was allowed to stand in the incubator for 4 hours at 37° C., 5% CO2, and then the multi-label reader 2030 ARVO X4 (PerkinElmer) was used to measure the absorbance. At this time, the absorbance at 450 nm and the absorbance at 620 nm were obtained, and the difference between 450 nm and 620 nm was used as the measured value. The measured values were analyzed by Excel and TIBCO Spotfire, and IC50 values were calculated. At this time, for control (−), the well without cells was set as n=6 for one row, and the average value was calculated, and for control (+), the well in which DMSO was added to the cells so as to have the same concentration as the compound treatment group was set as n=6 for one row, and the average value was calculated and corrected for each plate. For the test compound, the average value of n=2 was used.

[3] = Metabolism stability test; format: in vitro ADME; conditions: human liver microsomes 0.5 mg protein/mL, 30 minutes, 37° C., NADPH
Protocol: Using commercially available pooled human hepatic microsomes, a compound of the present invention is reacted for a constant time, and a remaining rate is calculated by comparing a reacted sample and an unreacted sample, thereby, a degree of metabolism in liver is assessed.
A reaction is performed (oxidative reaction) at 37° C. for 0 minute or 30 minutes in the presence of 1 mmol/L NADPH in 0.2 mL of a buffer (50 mmol/L Tris-HCl pH 7.4, 150 mmol/L potassium chloride, 10 mmol/L magnesium chloride) containing 0.5 mg protein/mL of human liver microsomes. After the reaction, 50 μL of the reaction solution is added to 100 μL of a methanol/acetonitrile=1/1 (v/v), mixed and centrifuged at 3000 rpm for 15 minutes. The compound of the present invention in the supernatant is quantified by LC/MS/MS or Solid Phase Extraction (SPE)/MS, and a remaining amount of the compound of the present invention after the reaction is calculated, letting a compound amount at 0 minute reaction time be 100%. The hydrolysis reaction is carried out in the absence of NADPH, and the glucuronidation reaction is carried out in the presence of 5 mmol/L UDP-glucuronic acid instead of NADPH, and the same operation is carried out thereafter. The dilution concentration and dilution solvent are changed as necessary.

## Cn1cc(-c2cnc(C(=O)Nc3nc(-c4cccs4)ccc3N)cn2)cn1 [Compound I-017]
[1]
  IC50: 220 nM
[2]
  IC50 at 48 h: > 25 µM
[3]
  remaining rate after reaction: 81.8%

## C[C@H](F)COc1cnc(C(=O)Nc2cc(-c3ccc(F)nc3)ccc2N)cn1 (racemic) [Compound I-125]
[1]
  IC50: 180 nM
[2]
  IC50 at 48 h: > 25 µM
[3]
  remaining rate after reaction: 80.4%

## Cn1cc(-c2cnc(C(=O)Nc3cc(-c4ccc(F)nc4)ccc3N)cn2)cn1 [Compound I-080]
[1]
  IC50: 48 nM
[2]
  IC50 at 48 h: > 25 µM
[3]
  remaining rate after reaction: 84.8%

## Cn1cc(-c2cnc(C(=O)Nc3nc(-n4cccc4)ccc3N)cn2)cn1 [Compound I-023]
[1]
  IC50: 180 nM
[2]
  IC50 at 48 h: > 25 µM
[3]
  remaining rate after reaction: 95.3%

## N#Cc1ccc(C(=O)Nc2cc(-c3ccc(F)nc3)ccc2N)nc1 [Compound I-092]
[1]
  IC50: 250 nM
[2]
  IC50 at 48 h: > 25 µM
[3]
  remaining rate after reaction: 103%

## CCOc1cnc(C(=O)Nc2cc(-c3ccc(F)nc3)ccc2N)cn1 [Compound I-118]
[1]
  IC50: 140 nM
[2]
  IC50 at 48 h: > 25 µM

## Cn1cc(-c2ccc(N)c(NC(=O)c3cnc(C4CC4)cn3)c2)cn1 [Compound I-130]
[1]
  IC50: 140 nM
[2]
  IC50 at 48 h: > 25 µM
[3]
  remaining rate after reaction: 92.9%
